From publication PMC9332833 (Cancers, 2022)

How the values were obtained:
[1] = test system: CD34+/CD38+ cells from CML patients; assay: Annexin V-FITC/PI apoptosis in CD34+/CD38+ subpopulation; assay type: cell-based, human; conditions: 2.5 or 5 µM, 24 h
Description: Pre-cultured cells were treated with BK124.1 or DMSO for 24 h. For purity analysis, cells were stained with anti-human CD34-APC antibody, anti-human CD38-PE (Biolegend, San Diego, CA, USA), and propidium iodide according to the manufacturers’ protocols. For apoptosis analysis, cells were additionally stained with Annexin V-FITC kit (BD, Franklin Lakes, NJ, USA) according to the manufacturer’s protocol. Appropriate isotype controls were included. Stained cells were immediately analyzed on a BD LSRFortessa flow cytometer with FlowJo software (BD, Franklin Lakes, NJ, USA), after exclusion of doublets. Purity was analyzed on live cells only, and apoptosis separately for each population of cells (CD34^+/CD38^+ or CD34^+/CD38^−).
[…] Next, we isolated CD34+ cells (EasySep™ Human CD34 Positive Selection Kit II, StemCell Technologies, Vancouver, Canada), counted them and assessed viability with Muse Cell Analyzer (Merck Millipore, Burlington, MA, USA). […] The purity of the live CD34+ fraction was assessed by flow cytometry with anti-human CD34-APC antibody, compared with an appropriate isotype control (Biolegend, San Diego, CA, USA), and propidium iodide (Sigma-Aldrich, St. Louis, MO, USA). […]
[…] In both cases stained cells were immediately analyzed on a BD LSRFortessa flow cytometer and analyzed with FlowJo software (BD, Franklin Lakes, NJ, USA). […]

HUVEC = test system: HUVEC; design: method as in PMID 26902600, PMID 31487824; conditions: cited from earlier work

CCC12C(=O)C(CC)(C(c3ccccc3)=C1c1ccccc1)C1C(=O)N(CC(O)CNC(C)C)C(=O)C12 (centres unmarked) [BK124.1, 4-[2-hydroxy-3-(propan-2-ylamino)propyl]-1,7-diethyl-8,9-diphenyl-4-azatricyclo [5.2.1.02,6]dec-8-ene-3,5,10-trione]
Apoptosis in CD34+/CD38+ cells compared with CD34+/CD38- cells [1]: even higher apoptosis | Toxicity to normal cells (HUVEC): non-toxic
